The results in this text go back to PubChem BioAssay (NCI).

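Results reflect a 48-hour exposure of cells in 96-well plates to compound at five concentrations. GI50 is the concentration that inhibits growth by half. TGI: total growth inhibition.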

What all share (assay): NCI-60 cell line screen, 48 h
In assay [1] the test system is T-47D breast.
Assay [2] has as its system SF-539 CNS.
The subject of assay [3] is OVCAR-8 ovarian.
Assay [4] relates to TK-10 renal.
The subject of assay [5] is ACHN renal.
Assay [6] concerns NCI-H226 lung.
For assay [7], the system named is UO-31 renal.
Assay [8] has as its system BT-549 breast.
The test system of assay [9] is CCRF-CEM leukemia.
For assay [10], the system named is SK-MEL-28 melanoma.

Consider `CN(Cc1cccc(Cl)c1)c1ccc(CO)c(Cl)c1`, for which the GI50 was 0.746 µM in assay [1]; 18.7 µM in assay [2]; 15.8 µM in assay [3]; 0.215 µM in assay [4]; 21.9 µM in [5]; 0.113 µM in [6]. The GI50 in assay [7] is 8.41 µM; in assay [8] it was 14.6 µM; in assay [9] it was 22.7 µM; in assay [10] it was 16.4 µM. The TGI in [1] came to 5.17 µM; in assay [2] it was 38.7 µM; in assay [3], 53.8 µM; in assay [4], 1.36 µM; in assay [5] it was 93.5 µM; in assay [6] it was 0.284 µM. The TGI in assay [7] is 37.4 µM; in assay [8], 34.5 µM; in assay [9], over 73.6 µM; in [10], 43.9 µM.
Take `Nc1c2c(c(O)c3c1=C(CO)C=N3)=NCCS2=O` (stereo not drawn): the GI50 in assay [1] is 0.688 µM; in [2] it was 1.65 µM; in assay [3], 1.99 µM; in assay [4], 17.5 µM; in assay [6], 1.79 µM; in assay [7] it was 1.68 µM. Moreover, the GI50 in assay [8] is 1.69 µM; in [9], 1.65 µM. The TGI in [1] was 2.68 µM; in assay [2] it was 3.06 µM; in [3] it was 4.78 µM; in [4], 31.8 µM; in assay [6], 4.17 µM; in assay [7], 3.5 µM. For the same molecule, the values for the TGI in [8] and in assay [9] were 3.1 µM and 13.2 µM, respectively.
On to `COc1ccc(-n2cc(-c3ccc(F)cc3)[nH]c2=O)cc1OC`, for which the GI50 in assay [1] is over 100 µM; in assay [2], 82.2 µM; in assay [3], 82.1 µM; in assay [4], over 100 µM; in [5] it was over 100 µM; in assay [6], over 100 µM. Further, the GI50 was over 100 µM in assay [7], over 100 µM in assay [8], 18.2 µM in assay [9] and over 100 µM in [10]. Moreover, the TGI in [1], in [2], in [3], in [4], in assay [5] and in assay [6] was over 100 µM throughout. Further, the TGI in assay [7] is over 100 µM; in assay [8] it was over 100 µM; in assay [9], 34.3 µM; in assay [10], over 100 µM.
As for `Clc1ccc2c(NCCCNCc3ccc4c(c3)OCO4)ccnc2c1`, the GI50 in assay [1] was 2.11 µM; in [2], 1.85 µM; in [3] it was 3.64 µM; in [4], 2.19 µM; in assay [5] it was 3.45 µM; in assay [6], 17.8 µM. For the same molecule, the GI50 is 1.41 µM in assay [7], 4.47 µM in [8], 4.62 µM in [9] and 1.86 µM in assay [10]. Besides, the TGI in [1] was 5.26 µM; in assay [2], 3.41 µM; in assay [3], 13.1 µM; in assay [4], 5.54 µM; in assay [5], 12 µM; in assay [6], 40.9 µM. The TGI was 3.1 µM in assay [7], 17.7 µM in assay [8], 19.3 µM in assay [9] and 3.57 µM in assay [10].
For the molecule `COc1cc2c(cc1OC)-c1c(c3ccc([N+](=O)[O-])cc3c(=O)n1CCCBr)C2=O`, the GI50 in [1] is 0.731 µM; in [2], 10.4 µM; in assay [3], 38.5 µM; in [4], over 100 µM; in assay [5], 1.18 µM; in [6], 22.7 µM. Also, the GI50 in assay [7] is 5.23 µM; in assay [8], over 100 µM; in assay [9] it was 0.425 µM; in assay [10], over 100 µM. Also, the TGI in [1] was over 100 µM; in assay [2], over 100 µM; in [3] it was over 100 µM; in assay [4], over 100 µM; in assay [5] it was 36.8 µM; in assay [6] it was 85.1 µM. The TGI in [7] was over 100 µM; in assay [8], over 100 µM; in assay [9] it was 67.7 µM; in [10], over 100 µM.
In the case of `CC/C(=C(/c1ccc(Cl)cc1)c1ccc(OCCCN(C)C)cc1)c1ccc(OC)cc1`, the GI50 was 3.76 µM in [1]; 4.08 µM in assay [2]; 8.05 µM in assay [3]; 6.23 µM in assay [4]; 5.61 µM in assay [5]; 7.7 µM in [6]. Also, the GI50 is 5.3 µM in [7], 1.13 µM in assay [8], 1.79 µM in assay [9] and 1.33 µM in assay [10]. Besides, the TGI came to 12.1 µM in assay [1]; 11.6 µM in assay [2]; 17.6 µM in assay [3]; 13 µM in [4]; 12.4 µM in assay [5]; 18.3 µM in assay [6]. Moreover, the TGI in assay [7] worked out at 11.8 µM; in assay [8], 2.89 µM; in assay [9], 7.19 µM; in [10], 3.84 µM.
Take `COc1ccc2c(c1)cn1c3ccc(OC)cc3[nH]c(=O)c21`: the GI50 in [1] was 1.04 µM; in assay [2], under 0.0159 µM; in [3], under 0.0214 µM; in assay [4], 1.17 µM; in [5] it was under 0.0226 µM; in [6] it was 0.059 µM. For the same molecule, the figures for the GI50 in [7], in [8] and in assay [10] were under 0.0169 µM, 0.0407 µM and under 0.0285 µM, respectively. Also, the TGI is 2.61 µM in assay [1]; under 0.028 µM in assay [2]; 1.46 µM in [3]; 2.44 µM in [4]; 1.69 µM in assay [5]; 8.97 µM in assay [6]. The results for the TGI in assay [7], in assay [8] and in assay [10] were 1.77 µM, 1.17 µM and 2.15 µM, respectively.
Regarding `CC(=O)O[C@H]1CC[C@@]2(C)[C@@H](CC[C@@H]3[C@@H]2CC(=O)[C@@]2(C)[C@H]3C[C@@H]3CC(C)=CC(=O)[C@@H]32)C1`, the TGI in assay [1], in assay [3], in assay [4], in assay [5], in assay [6] and in [7] was over 100 µM in each case. In addition, the TGI was 71.2 µM in [8], over 100 µM in assay [9] and over 100 µM in [10].
